Measured values: PubChem BioAssay AID1963835 (Molecular Pharmacology Branch, DTP, NCI, 2024)
pIC50: −log10 of the molar value. Values joined by “and” are separate entries in the source; they are usually repeats but may differ in a detail not shown here. Equal entries are not always repeated.

Test system: 699152-130-R-J1-PDC complex spheroid viability
Assay: Anticancer human tumor 699152-130-R-J1-PDC patient-derived pancreatic carcinoma cell line growth inhibition [POLQ]
Conditions: for viability, T/C: stronger effect = lower value
Outline: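 Patient-derived tumour cells were co-cultured with HUVEC and mesenchymal stem cells as multicellular spheroids at 37 °C. They were treated with POLQ inhibitors (novobiocin, ART-558, RP6685) alone or combined with other agents. Top concentrations were at or near clinical Cmax (otherwise 10 microM; SN-38 at 1 microM), decreasing in half-log steps.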
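Also: spheroids exposed to agents for 7 days before viability reading.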
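For viability, T/C in this document: percent of DMSO vehicle control viability so 100% = vehicle and 0% = no viable signal.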

Work on `COc1cccc(OCCCN)c1-c1cc(Nc2cnc(C#N)cn2)n[nH]1` + Cc1cccc(N(C)C(=O)C2C(O)CCN2c2nc(C)cc(C(F)(F)F)c2C#N)c1 yielded a pIC50 (curve of first compound, second compound 0.0316 µM) of under 6.00, a pIC50 (curve of first compound, second compound 0.1 µM) of under 6.00 and a pIC50 (curve of first compound, second compound 0.316 µM) of under 6.00. It also gave a pIC50 (curve of first compound, second compound 1 µM) of under 6.00, a pIC50 (curve of first compound, second compound 3.16 µM) of under 6.00 and a pIC50 (curve of first compound, second compound 10 µM) of under 6.00. For the same compound, the viability, T/C (second compound 0.0316 µM, first compound 0.00316 µM) was 93%, the viability, T/C (second compound 0.0316 µM, first compound 0.01 µM) was 75.7% and the viability, T/C (second compound 0.0316 µM, first compound 0.0316 µM) was 64.7%. It also gave a viability, T/C (second compound 0.0316 µM, first compound 0.1 µM) of 63.1%, a viability, T/C (second compound 0.0316 µM, first compound 0.316 µM) of 50.8% and a viability, T/C (second compound 0.0316 µM, first compound 1 µM) of 51.2%. It also gave a viability, T/C (second compound 0.1 µM, first compound 0.00316 µM) of 89.4%, a viability, T/C (second compound 0.1 µM, first compound 0.01 µM) of 85.7% and a viability, T/C (second compound 0.1 µM, first compound 0.0316 µM) of 67.4%. The viability, T/C (second compound 0.1 µM, first compound 0.1 µM) was 58.1%, the viability, T/C (second compound 0.1 µM, first compound 0.316 µM) was 55.5% and the viability, T/C (second compound 0.1 µM, first compound 1 µM) was 49.1%. For the same compound, the viability, T/C (second compound 0.316 µM, first compound 0.00316 µM) was 100%, the viability, T/C (second compound 0.316 µM, first compound 0.01 µM) was 91.3% and the viability, T/C (second compound 0.316 µM, first compound 0.0316 µM) was 61.5%. It also gave a viability, T/C (second compound 0.316 µM, first compound 0.1 µM) of 59.6%, a viability, T/C (second compound 0.316 µM, first compound 0.316 µM) of 54.5% and a viability, T/C (second compound 0.316 µM, first compound 1 µM) of 46.7%. For the same compound, the viability, T/C (second compound 1 µM, first compound 0.00316 µM) was 92.8%, the viability, T/C (second compound 1 µM, first compound 0.01 µM) was 90.7% and the viability, T/C (second compound 1 µM, first compound 0.0316 µM) was 61.2%. For the same compound, the viability, T/C (second compound 1 µM, first compound 0.1 µM) was 54.1%, the viability, T/C (second compound 1 µM, first compound 0.316 µM) was 52.8% and the viability, T/C (second compound 1 µM, first compound 1 µM) was 48.7%. It also gave a viability, T/C (second compound 3.16 µM, first compound 0.00316 µM) of 86.3%, a viability, T/C (second compound 3.16 µM, first compound 0.01 µM) of 86.4% and a viability, T/C (second compound 3.16 µM, first compound 0.0316 µM) of 67.2%. It also gave a viability, T/C (second compound 3.16 µM, first compound 0.1 µM) of 56.3%, a viability, T/C (second compound 3.16 µM, first compound 0.316 µM) of 51.2% and a viability, T/C (second compound 3.16 µM, first compound 1 µM) of 57.3%. It also gave a viability, T/C (second compound 10 µM, first compound 0.00316 µM) of 98.1%, a viability, T/C (second compound 10 µM, first compound 0.01 µM) of 88% and a viability, T/C (second compound 10 µM, first compound 0.0316 µM) of 61.6%. The viability, T/C (second compound 10 µM, first compound 0.1 µM) was 59%, the viability, T/C (second compound 10 µM, first compound 0.316 µM) was 58.4% and the viability, T/C (second compound 10 µM, first compound 1 µM) was 56.1%.
For `O=c1[nH]cc(F)c(=O)[nH]1`, the viability, T/C (compound 0.0316 µM) was 91.8% and 111% and 102%, the viability, T/C (compound 0.1 µM) was 130% and 91.7% and 100% and the viability, T/C (compound 0.316 µM) was 96.3% and 108% and 117%. The viability, T/C (compound 1 µM) was 101% and 114% and 94%, the viability, T/C (compound 3.16 µM) was 108% and 92.4% and 91% and the viability, T/C (compound 10 µM) was 70.4% and 70.2% and 62.4%. For the same compound, the pIC50 (curve of compound) was under 5.00.
In the case of `CC(=O)O[C@H]1C(=O)[C@@]2(C)[C@H]([C@H](OC(=O)c3ccccc3)[C@]3(O)C[C@H](OC(=O)[C@H](O)[C@@H](NC(=O)c4ccccc4)c4ccccc4)C(C)=C1C3(C)C)[C@]1(OC(C)=O)CO[C@@H]1C[C@@H]2O`, the viability, T/C (compound 0.00949 µM) was 71.7% and 80.5% and 82.2%, the viability, T/C (compound 0.03 µM) was 56% and 69.6% and 61.2% and the viability, T/C (compound 0.0949 µM) was 54.2% and 56.2% and 58.5%. The viability, T/C (compound 0.3 µM) was 62% and 62.2% and 59.9%, the viability, T/C (compound 0.949 µM) was 66.9% and 69% and 60% and the viability, T/C (compound 3 µM) was 70.2% and 72.3% and 64.6%. For the same compound, the pIC50 (curve of compound) was under 5.52.
